Measured values: ChEMBL document CHEMBL6078666, “Discovery of Novel Coumarin Pleuromutilin Derivatives as Potent Anti-MRSA Agents” (J Med Chem, 2024)
In brackets after ≈: the same amount, converted by molar mass.

Legend:
Format in all cases: functional
Enterococcus faecium [1] = assay: Antibacterial activity against vancomycin-resistant Enterococcus faecium clinical isolate 202308456 assessed as bacterial growth inhibition measured after 20 hrs by broth dilution method
Streptococcus pneumoniae [2] = assay: Antibacterial activity against penicillin-intermediate Streptococcus pneumoniae ATCC 49619 assessed as bacterial growth inhibition measured after 20 hrs by broth dilution method
Staphylococcus aureus [3] = assay: Ratio of MBC to MIC against methicillin-resistant Staphylococcus aureus ATCC 33591
Staphylococcus aureus [4] = assay: Ratio of MBC to MIC against methicillin-resistant Staphylococcus aureus clinical isolate 202405157
[5] = test system: Staphylococcus epidermidis; assay: Antibacterial activity against methicillin-resistant Staphylococcus epidermidis clinical isolate 202409139 assessed as bacterial growth inhibition measured after 20 hrs by broth dilution method
Staphylococcus aureus [6] = assay: Ratio of MBC to MIC against methicillin-resistant Staphylococcus aureus clinical isolate 202311772
Streptococcus pneumoniae [7] = assay: Ratio of MBC to MIC against penicillin-intermediate Streptococcus pneumoniae ATCC 49619
Staphylococcus aureus [8] = assay: Antibacterial activity against methicillin-resistant Staphylococcus aureus ATCC 33591 assessed as bacterial growth inhibition measured after 20 hrs by broth dilution method
Enterococcus faecium [9] = assay: Antibacterial activity against vancomycin-resistant Enterococcus faecium ATCC 700221 assessed as bacterial growth inhibition measured after 20 hrs by broth dilution method
Staphylococcus aureus [10] = assay: Ratio of MBC to MIC against Staphylococcus aureus ATCC 43300
Streptococcus pneumoniae [11] = assay: Antibacterial activity against penicillin-resistant Streptococcus pneumoniae ATCC 51916 assessed as bacterial growth inhibition measured after 20 hrs by broth dilution method
Staphylococcus aureus [12] = assay: Antibacterial activity against methicillin-resistant Staphylococcus aureus clinical isolate 202311772 assessed as bacterial growth inhibition measured after 20 hrs by broth dilution method
[13] = test system: Staphylococcus epidermidis; assay: Antibacterial activity against Staphylococcus epidermidis ATCC 51625 assessed as bacterial growth inhibition measured after 20 hrs by broth dilution method
[14] = test system: Staphylococcus epidermidis; assay: Antibacterial activity against methicillin-resistant Staphylococcus epidermidis clinical isolate 202409454 assessed as bacterial growth inhibition measured after 20 hrs by broth dilution method
[15] = test system: Staphylococcus epidermidis; assay: Ratio of MBC to MIC against methicillin-resistant Staphylococcus epidermidis clinical isolate 202409454
Staphylococcus aureus [16] = assay: Antibacterial activity against methicillin-resistant Staphylococcus aureus ATCC 43300 assessed as bacterial growth inhibition measured after 20 hrs by broth dilution method
Staphylococcus aureus [17] = assay: Antibacterial activity against methicillin-resistant Staphylococcus aureus clinical isolate 202405157 assessed as bacterial growth inhibition measured after 20 hrs by broth dilution method
[18] = test system: Staphylococcus epidermidis; assay: Ratio of MBC to MIC against Staphylococcus epidermidis ATCC 51625
Enterococcus faecium [19] = assay: Ratio of MBC to MIC against vancomycin-resistant Enterococcus faecium ATCC 700221
Enterococcus faecium [20] = assay: Antibacterial activity against vancomycin-resistant Enterococcus faecium ATCC 51559 assessed as bacterial growth inhibition measured after 20 hrs by broth dilution method
Staphylococcus aureus [21] = assay: Antibacterial activity against methicillin-resistant Staphylococcus aureus clinical isolate 202313160 assessed as bacterial growth inhibition measured after 20 hrs by broth dilution method
[22] = test system: Staphylococcus epidermidis; assay: Ratio of MBC to MIC against methicillin-resistant Staphylococcus epidermidis clinical isolate 202409139
Enterococcus faecium [23] = assay: Ratio of MBC to MIC against vancomycin-resistant Enterococcus faecium ATCC 51559
Enterococcus faecium [24] = assay: Ratio of MBC to MIC against vancomycin-resistant Enterococcus faecium clinical isolate 202308456
Streptococcus pneumoniae [25] = assay: Ratio of MBC to MIC against penicillin-resistant Streptococcus pneumoniae ATCC 51916
Staphylococcus aureus [26] = assay: Ratio of MBC to MIC against methicillin-resistant Staphylococcus aureus clinical isolate 202313160

SMILES	MIC (Enterococcus faecium [1])	MIC (Streptococcus pneumoniae [2])	MIC [5]	Ratio (Staphylococcus aureus [6])	Ratio (Streptococcus pneumoniae [7])	MIC (Staphylococcus aureus [8])	MIC (Enterococcus faecium [9])	Ratio (Staphylococcus aureus [10])	MIC (Streptococcus pneumoniae [11])	MIC (Staphylococcus aureus [12])	MIC [13]	MIC [14]	MIC (Staphylococcus aureus [16])	MIC (Staphylococcus aureus [17])	Ratio [18]	Ratio (Enterococcus faecium [19])	MIC (Enterococcus faecium [20])	MIC (Staphylococcus aureus [21])	Ratio (Enterococcus faecium [23])	Ratio (Enterococcus faecium [24])	other results
C=C[C@]1(C)C[C@@H](OC(=O)CSc2cc(=O)oc3ccc(F)cc23)[C@]2(C)[C@H](C)CC[C@]3(CCC(=O)[C@H]32)[C@@H](C)[C@@H]1O	0.031 µg/mL (≈ 0.0557 µM)	0.063 µg/mL (≈ 0.113 µM)	0.063 µg/mL (≈ 0.113 µM)	>4	>4	0.031 µg/mL (≈ 0.0557 µM)	0.031 µg/mL (≈ 0.0557 µM)	4	0.125 µg/mL (≈ 0.225 µM)	0.031 µg/mL (≈ 0.0557 µM)	0.031 µg/mL (≈ 0.0557 µM)	0.125 µg/mL (≈ 0.225 µM)	0.063 µg/mL (≈ 0.113 µM)	0.063 µg/mL (≈ 0.113 µM)	4	4	0.063 µg/mL (≈ 0.113 µM)	0.063 µg/mL (≈ 0.113 µM)	2	>4	Ratio (Staphylococcus aureus [3]): >4; Ratio (Staphylococcus aureus [4]): >4; Ratio [15]: >4; Ratio [22]: 2
C=C[C@]1(C)C[C@@H](OC(=O)CSc2cc(=O)oc3ccccc23)[C@]2(C)[C@H](C)CC[C@]3(CCC(=O)[C@H]32)[C@@H](C)[C@@H]1O	0.125 µg/mL (≈ 0.232 µM)	0.031 µg/mL (≈ 0.0575 µM)	0.125 µg/mL (≈ 0.232 µM)	2	>4	0.031 µg/mL (≈ 0.0575 µM)	0.031 µg/mL (≈ 0.0575 µM)	>4	0.125 µg/mL (≈ 0.232 µM)	0.031 µg/mL (≈ 0.0575 µM)	0.016 µg/mL (≈ 0.0297 µM)	0.25 µg/mL (≈ 0.464 µM)	0.063 µg/mL (≈ 0.117 µM)	0.125 µg/mL (≈ 0.232 µM)	>4	1	0.125 µg/mL (≈ 0.232 µM)	0.125 µg/mL (≈ 0.232 µM)	4	>4	Ratio (Staphylococcus aureus [4]): 2; Ratio (Streptococcus pneumoniae [25]): 2; Ratio [15]: 2
C=C[C@]1(C)C[C@@H](OC(=O)CO)[C@]2(C)[C@H](C)CC[C@]3(CCC(=O)[C@H]32)[C@@H](C)[C@@H]1O [PLEUROMULIN]	0.5 µg/mL (≈ 1.32 µM)	2 µg/mL (≈ 5.28 µM)	0.25 µg/mL (≈ 0.66 µM)	>4	2	0.5 µg/mL (≈ 1.32 µM)	0.5 µg/mL (≈ 1.32 µM)	2	4 µg/mL (≈ 10.6 µM)	0.25 µg/mL (≈ 0.66 µM)	1 µg/mL (≈ 2.64 µM)	0.25 µg/mL (≈ 0.66 µM)	1 µg/mL (≈ 2.64 µM)	0.5 µg/mL (≈ 1.32 µM)	>4	>4	2 µg/mL (≈ 5.28 µM)	0.5 µg/mL (≈ 1.32 µM)	2	2	Ratio (Staphylococcus aureus [3]): 4; Ratio (Streptococcus pneumoniae [25]): 4; Ratio (Staphylococcus aureus [26]): >4; Ratio [22]: 4
C=C[C@]1(C)C[C@@H](OC(=O)CSc2cc(=O)oc3cc(Br)ccc23)[C@]2(C)[C@H](C)CC[C@]3(CCC(=O)[C@H]32)[C@@H](C)[C@@H]1O	0.063 µg/mL (≈ 0.102 µM)	0.063 µg/mL (≈ 0.102 µM)	0.125 µg/mL (≈ 0.202 µM)	1	>4	0.031 µg/mL (≈ 0.0502 µM)	0.031 µg/mL (≈ 0.0502 µM)	>4	0.125 µg/mL (≈ 0.202 µM)	0.031 µg/mL (≈ 0.0502 µM)	0.031 µg/mL (≈ 0.0502 µM)	0.125 µg/mL (≈ 0.202 µM)	0.063 µg/mL (≈ 0.102 µM)	0.063 µg/mL (≈ 0.102 µM)	4	2	0.063 µg/mL (≈ 0.102 µM)	0.125 µg/mL (≈ 0.202 µM)	1	2	Ratio (Staphylococcus aureus [4]): 2; Ratio (Staphylococcus aureus [26]): 4; Ratio [22]: >4
C=C[C@]1(C)C[C@@H](OC(=O)CSc2cc(=O)oc3cc(Cl)ccc23)[C@]2(C)[C@H](C)CC[C@]3(CCC(=O)[C@H]32)[C@@H](C)[C@@H]1O	0.063 µg/mL (≈ 0.11 µM)	0.063 µg/mL (≈ 0.11 µM)	0.125 µg/mL (≈ 0.218 µM)	>4	4	0.031 µg/mL (≈ 0.0541 µM)	0.031 µg/mL (≈ 0.0541 µM)	4	0.125 µg/mL (≈ 0.218 µM)	0.031 µg/mL (≈ 0.0541 µM)	0.031 µg/mL (≈ 0.0541 µM)	0.125 µg/mL (≈ 0.218 µM)	0.063 µg/mL (≈ 0.11 µM)	0.25 µg/mL (≈ 0.436 µM)	>4	2	0.063 µg/mL (≈ 0.11 µM)	0.125 µg/mL (≈ 0.218 µM)	2	>4	Ratio (Staphylococcus aureus [3]): >4; Ratio (Staphylococcus aureus [4]): >4; Ratio (Staphylococcus aureus [26]): >4; Ratio [15]: 2
C=C[C@]1(C)C[C@@H](OC(=O)CSc2cc(=O)oc3ccc([N+](=O)[O-])cc23)[C@]2(C)[C@H](C)CC[C@]3(CCC(=O)[C@H]32)[C@@H](C)[C@@H]1O	0.125 µg/mL (≈ 0.214 µM)	0.125 µg/mL (≈ 0.214 µM)	0.063 µg/mL (≈ 0.108 µM)		>4	0.031 µg/mL (≈ 0.0531 µM)	0.031 µg/mL (≈ 0.0531 µM)	>4	0.25 µg/mL (≈ 0.428 µM)	0.031 µg/mL (≈ 0.0531 µM)	0.031 µg/mL (≈ 0.0531 µM)	0.125 µg/mL (≈ 0.214 µM)	0.063 µg/mL (≈ 0.108 µM)	0.063 µg/mL (≈ 0.108 µM)	>4	2	0.063 µg/mL (≈ 0.108 µM)	0.063 µg/mL (≈ 0.108 µM)	2	1	Ratio (Staphylococcus aureus [26]): 4; Ratio [15]: 2
C=C[C@]1(C)C[C@@H](OC(=O)CSCCOc2cc(=O)oc3cc(OC)ccc23)[C@]2(C)[C@H](C)CC[C@]3(CCC(=O)[C@H]32)[C@@H](C)[C@@H]1O	0.125 µg/mL (≈ 0.204 µM)	0.125 µg/mL (≈ 0.204 µM)	0.125 µg/mL (≈ 0.204 µM)		>4	0.063 µg/mL (≈ 0.103 µM)	0.063 µg/mL (≈ 0.103 µM)	>4	0.063 µg/mL (≈ 0.103 µM)	0.125 µg/mL (≈ 0.204 µM)	0.031 µg/mL (≈ 0.0506 µM)	0.25 µg/mL (≈ 0.408 µM)	0.125 µg/mL (≈ 0.204 µM)	0.125 µg/mL (≈ 0.204 µM)	>4	>4	0.125 µg/mL (≈ 0.204 µM)	0.125 µg/mL (≈ 0.204 µM)	2	>4	Ratio (Staphylococcus aureus [4]): 4; Ratio (Streptococcus pneumoniae [25]): 2; Ratio [15]: >1
C=C[C@]1(C)C[C@@H](OC(=O)CSCCOc2cc(=O)oc3ccccc23)[C@]2(C)[C@H](C)CC[C@]3(CCC(=O)[C@H]32)[C@@H](C)[C@@H]1O	0.125 µg/mL (≈ 0.214 µM)	0.125 µg/mL (≈ 0.214 µM)	0.125 µg/mL (≈ 0.214 µM)	1	>4	0.063 µg/mL (≈ 0.108 µM)	0.063 µg/mL (≈ 0.108 µM)	>4	0.25 µg/mL (≈ 0.429 µM)	0.125 µg/mL (≈ 0.214 µM)	0.031 µg/mL (≈ 0.0532 µM)	0.063 µg/mL (≈ 0.108 µM)	0.25 µg/mL (≈ 0.429 µM)	0.25 µg/mL (≈ 0.429 µM)	>4	>4	0.25 µg/mL (≈ 0.429 µM)	0.125 µg/mL (≈ 0.214 µM)	2	2	Ratio (Staphylococcus aureus [26]): 2; Ratio [15]: 2
